The values that follow come from patent publication US20110166132A1, “Gamma Secretase Modulators” (Amgen Inc., priority 2007, published 2011).

Structures are written as SMILES.

What is called IC50 is the concentration that inhibits the measured activity by half. A lower IC50 goes with greater potency in that assay.

The target of the experiment is T1, gamma secretase (Homo sapiens, UniProt P49768).
T1 construct: HEK293 cells stably expressing full length Amyloid Precursor Protein (APP); endogenous in cells; host or cells: HEK 293 cells stably expressing full length APP
Nature of the experiment: GSM cell-based assay: Aβ 42 inhibition or reduction in HEK 293 cells over-expressing APP (sandwich ELISA). The note with it: approximate IC50; HEK293 cells stably expressing full length APP, 24 hours incubation, 10-point dose response starting at 10 μM. In outline: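 APP-overexpressing HEK293 cells treated 24 h with 10-point doses from 10 μM (0.1% DMSO). Aβ42 in conditioned medium measured by sandwich ELISA (RabMAb 42 capture, biotinylated 6E10 detection, Eu time-resolved fluorescence); CellTiter-Blue viability run in parallel. IC50 from percent of control versus concentration.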
`CCN(Cc1cc(OC)c(OC)c(OC)c1)c1ccc(C(C)C(=O)Nc2ccc(-c3ccnc(C)c3)cc2)cc1` (centres unmarked) [Cpd 526, 2-(4-(ethyl(3,4,5-trimethoxybenzyl)amino)-phenyl)-N-(4-(2-methyl-4-pyridinyl)-phenyl)propanamide] gave an IC50 of 0.31 µM. Turning to `Cc1cc(-c2ccc(NC(=O)CC3CCCC3)cc2)ccn1` [Cpd 558, 2-cyclopentyl-N-(4-(2-methyl-4-pyridinyl)-phenyl)acetamide], the IC50 is more than 10 µM.

The compound `COc1cc(C(C)C(=O)Nc2ccc(-c3ccnc(C)c3)cc2)ccc1N` (centres unmarked) [Cpd 574, 2-(4-amino-3-methoxyphenyl)-N-(4-(2-methyl-4-pyridinyl)phenyl)propanamide] had an IC50 of more than 10 µM. As for `COc1cc(C(C)C(=O)Nc2ccc(-c3ccnc(C)c3)cc2)ccc1NC(C)C` (centres unmarked) [Cpd 575, 2-(3-methoxy-4-((1-methylethyl)amino)-phenyl)-N-(4-(2-methyl-4-pyridinyl)-phenyl)propanamide], half-maximal inhibition (IC50) required 1.52 µM. In the case of `Cc1cc(-c2ccc(NC(=O)C(C)c3ccc(N4CCCCC4)nc3)cc2)ccn1` (centres unmarked) [Cpd 580, N-(4-(2-methyl-4-pyridinyl)phenyl)-2-(6-(1-piperidinyl)-3-pyridinyl)propanamide] it was 0.616 µM; in that of `Cc1cc(-c2ccc(NC(=O)Cc3ccc4oc(-c5cccnc5)nc4c3)cc2)ccn1` [Cpd 583, N-(4-(2-methyl-4-pyridinyl)phenyl)-2-(2-(3-pyridinyl)-1,3-benzoxazol-5-yl)-acetamide], 4.61 µM; in that of `Cc1cc(-c2ccc(NC(=O)Cc3ccc4oc(-c5ccncc5)nc4c3)cc2)ccn1` [Cpd 584, N-(4-(2-methyl-4-pyridinyl)phenyl)-2-(2-(4-pyridinyl)-1,3-benzoxazol-5-yl)-acetamide], more than 10 µM.

With `Cc1cc(-c2ccc(NC(=O)c3ccc(CN4CCOCC4)cc3)cc2)ccn1` [Cpd 625], the IC50 was more than 3.33 µM.

For `Cc1cc(C(C)C(=O)Nc2ccc(-c3ccnc(C)c3)cc2)cc(N2CCC(F)(F)CC2)c1` (centres unmarked) [Cpd 637, 2-(3-(4,4-difluoro-1-piperidinyl)-5-methyl-phenyl)-N-(4-(2-methyl-4-pyridinyl)-phenyl)propanamide], the IC50 is more than 10 µM. Take `Cc1cc(-c2ccc(NC(=O)[C@H](C)c3cccc(-c4ccc(C(=O)O)cc4)c3)cc2)ccn1` [Cpd 639]: the IC50 was more than 10 µM. With `Cc1cc(-c2ccc(NC(=O)c3ccc4[nH]c5c(c4c3)CSCC5)cc2)ccn1` [Cpd 662], the midpoint of inhibition, the IC50, lay at 5.1 µM.
